In this assay the test system is M. tuberculosis H37Rv growth inhibition. The experiment in a line: Mycobacterium tuberculosis H37Rv growth inhibition, cell based, confirmatory dose response (AID 1949).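 Further: bacteria grown 7 days with compound before Alamar blue readout.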

Converted amounts (≈) assume the structure as drawn. Results filed as inconclusive are left out. The source made the active and inactive calls. How the calls were made is not given here.

Regarding `COc1ccc(C(=O)NC(=S)Nc2ccc(N3CCCCC3)cc2)cc1OC`, the half-maximal inhibitory concentration (IC50) was 1.38 µg/mL (≈ 3.45 µM).
The value for `CCn1cc(C(=O)O)c(=O)c2cnc(N3CCN(C(=S)Nc4sc5c(c4C(=O)OC)CCCCCC5)CC3)nc21` was > 50 µg/mL (inactive).
Take `Cn1nnnc1Sc1ccc([N+](=O)[O-])c2ncccc12`: the IC50 is > 50 µg/mL (inactive).
With `CCC(C)c1ccc(O)c(NC(=S)NC(=O)c2ccc(-c3ccc(Cl)cc3)o2)c1` (stereo unspecified) the figure was less than 0.1 µg/mL; with `COC(=O)CSc1nnc(SCc2ccc(OC)cc2)s1`, 2.28 µg/mL (≈ 6.66 µM).
The value for `O=C(CCN1CCC(c2ccccc2)C1)c1cccs1` (stereo unspecified) was 11.5 µg/mL (≈ 40.2 µM); that for `O=C(Oc1ccccc1)c1cccc2cccnc12` was 0.99 µg/mL (≈ 3.97 µM); that for `O=[N+]([O-])c1ccc2nc(CSc3nc4ccccc4o3)[nH]c2c1` was 3.21 µg/mL (≈ 9.84 µM).
Turning to `c1ccc(COc2ccc(OCCCCn3ccnc3)cc2)cc1`, the half-maximal inhibitory concentration (IC50) was 5.37 µg/mL (≈ 16.7 µM).
The value for `COC(=O)COc1ccc(C2CCCCC2)cc1` was 1.46 µg/mL (≈ 5.88 µM); that for `COc1ccc2oc(=O)c(C(=O)Oc3ccc(Cl)cc3)cc2c1` was > 50 µg/mL (inactive).
In the case of `O=C(Nc1ccc(Cl)c(Cl)c1)c1ccc(Cl)cc1Cl`, the IC50 was 5.19 µg/mL (≈ 15.5 µM).
The value for `COc1ccc(C(=O)NC(=S)Nc2ccc([N+](=O)[O-])cc2O)cc1Br` was less than 0.1 µg/mL; that for `COc1ccc2[nH]cc(CCNC(=S)Nc3ccc(Nc4ccccc4)cc3)c2c1` was 2.9 µg/mL (≈ 6.96 µM); that for `O=C1C(=O)N(CCc2ccccc2)c2ccc(Cl)cc21` was 4.73 µg/mL (≈ 16.6 µM).
With `CC(=O)c1cccc(-n2nnnc2S(C)(=O)=O)c1` the figure was 2.75 µg/mL (≈ 10.3 µM); with `Cc1ccc(Cl)c(OCC(O)Cn2cnc3cc(C)c(C)cc32)c1` (stereo unspecified), 8.12 µg/mL (≈ 23.5 µM).
With `COc1ccc(CNC(=O)c2c(N)nc3sc4c(c3c2C(F)(F)F)CCC4)cc1` the figure was 0.31 µg/mL (≈ 0.736 µM); with `O=C(NCCC1=CCCCC1)C12CC3CC(CC(C3)C1)C2`, 11.2 µg/mL (≈ 39 µM).
With `CC(C)COCc1ccc(O)c2ncccc12`, the IC50 is > 50 µg/mL (inactive).
On to `O=C(CC1Sc2ccc(Cl)cc2NC1=O)Nc1ccc([N+](=O)[O-])cc1` (stereo unspecified), for which the IC50 is 2.53 µg/mL (≈ 6.7 µM).
In the case of `O=C(NC1C2CC3CC(C2)CC1C3)c1ccc(-c2ccc(Cl)cc2)o1` (stereo unspecified), the IC50 is 10.9 µg/mL (≈ 30.8 µM).
Regarding `Oc1cccc2ccc(/C=C/c3cccc(F)c3)nc12`, the IC50 is 0.13 µg/mL (≈ 0.49 µM).
With `COC(=O)C1=C(C)N(c2ccc(F)c(Cl)c2)C(=O)C1` the figure was 13.5 µg/mL (≈ 47.4 µM); with `COc1ccc(OCCC(=O)Nc2nc(C3CCCCC3)cs2)cc1`, 25.5 µg/mL (≈ 70.8 µM).
With `CC1=NN(C(=O)c2ccccc2)C(O)(c2ccncc2)C1` (stereo unspecified) the figure was less than 0.1 µg/mL.
With `Cc1ccc(NC(=O)CC2COc3ccccc3O2)cc1Cl` (stereo unspecified) the figure was 1.56 µg/mL (≈ 4.91 µM); with `Cc1cccc(COc2ccc(/C=C/[N+](=O)[O-])cc2)c1`, 21.4 µg/mL (≈ 79.5 µM).
For the compound `CC(C)CN1C(=O)c2cccc3c([N+](=O)[O-])ccc(c23)C1=O`, the IC50 is > 50 µg/mL (inactive).
With `O=C(NCc1cccc(C(F)(F)F)c1)Nc1cccc(Cl)c1` the figure was 5.93 µg/mL (≈ 18 µM); with `COc1cc2c(cc1NC(=O)C(=O)NCCCN1CCOCC1)oc1ccccc12`, > 50 µg/mL (inactive).
The value for `O=C(Nc1nc2ccc(F)cc2s1)c1ccc([N+](=O)[O-])o1` was 5.11 µg/mL (≈ 16.6 µM); that for `CCOC(=O)CSc1cc(C)nc2ccc(C)cc12` was 1.66 µg/mL (≈ 6.03 µM); that for `O=C(Nc1cccc(Br)c1)c1ccc(-c2ccc(Cl)cc2)o1` was 1.39 µg/mL (≈ 3.69 µM).
As for `Cc1cc(C(C)(C)C)ccc1OCCOCCn1ccnc1`, the IC50 was 2.93 µg/mL (≈ 9.69 µM).
For `O=c1cc(-c2ccccc2)nc2c(-c3cccc4ccccc34)c(Cc3ccccc3)[nH]n12`, the IC50 was 41.9 µg/mL (≈ 98.1 µM).
The value for `Cc1ccc(Cn2cnc3cc(C)c(C)cc32)cc1` was 8.24 µg/mL (≈ 32.9 µM).
The value for `O=C(Nc1nc2ccccc2[nH]1)c1ccc(Br)cc1` was 14.5 µg/mL (≈ 46 µM).
Consider `CC(C)(C)OC(=O)COc1cc2oc(=O)cc(-c3ccccc3)c2cc1Cl`, for which the IC50 was > 50 µg/mL (inactive).
The value for `NC(=O)c1c(NC(=O)c2cc3ccccc3oc2=O)sc2c1CCCCCC2` was 1.03 µg/mL (≈ 2.6 µM).
As to `CC(C)Cc1nc2sc3c(c2c(=O)o1)CCCCC3`, the IC50 is 5.69 µg/mL (≈ 20.5 µM).
As to `O=C(/C=C/c1cccc(C(F)(F)F)c1)Nc1ccc(Cl)cc1`, the half-maximal inhibitory concentration (IC50) was 5.09 µg/mL (≈ 15.6 µM).
The value for `CC1CCN(C(=S)NC(=O)c2ccc(Cl)cc2)CC1` was 0.35 µg/mL (≈ 1.18 µM); that for `CC1CCc2nc(NC(=S)NCc3ccco3)sc2C1` (stereo unspecified) was 3.09 µg/mL (≈ 10.1 µM).
With `Cc1ccc(NC(CC(=O)c2ccc([N+](=O)[O-])cc2)c2ccccc2)cc1` (stereo unspecified) the figure was 49.2 µg/mL (≈ 136 µM).
As for `CCCOc1ccc(C(=O)NC(=S)Nc2ccc(C(=O)O)cc2)cc1`, the IC50 was 0.12 µg/mL (≈ 0.335 µM).
With `Nc1nc2ccccc2n1CCOc1cccc2ccccc12` the figure was 4.95 µg/mL (≈ 16.3 µM); with `CCOc1ccc(OCc2ccc(C(=O)Nc3cccc(C)n3)o2)cc1`, 7.11 µg/mL (≈ 20.2 µM); with `COc1ccc2c(c1)CCC1Sc3ccccc3N=C21` (stereo unspecified), 1.43 µg/mL (≈ 5.08 µM).
With `Cc1ccc(C(=O)NC(=S)N(C)Cc2ccccc2)cc1`, the IC50 is 2.53 µg/mL (≈ 8.48 µM).
The value for `O=C(Nc1ccccc1N1CCCC1)c1ccc(-c2cccc(Cl)c2)o1` was 6.01 µg/mL (≈ 16.4 µM).
With `Cc1ccc(OCC(=O)c2ccc(F)cc2)cc1C` the figure was 2.46 µg/mL (≈ 9.52 µM); with `CCn1c2ccc(F)cc2c2nc3ccccc3nc21`, 6.92 µg/mL (≈ 26.1 µM).
Take `Cc1cc2ncn(CCOc3ccccc3C)c2cc1C`: the IC50 was 6.93 µg/mL (≈ 24.7 µM).
Turning to `Cc1cc(C)c2c(c1)c(-c1ccccc1)c(-c1ccccc1)n2CC(O)CN1CCN(CCO)CC1` (stereo unspecified), the half-inhibitory concentration (IC50) was 3.02 µg/mL (≈ 6.24 µM).
With `COc1ccc(Nc2sc(C(=O)C34CC5CC(CC(C5)C3)C4)c(N)c2C#N)cc1` the figure was 12.1 µg/mL (≈ 29.6 µM).
The value for `CCn1cc(C(=O)O)c(=O)c2cc(F)c(N3CCN(C(=S)Nc4ccc(Cl)cc4)CC3)cc21` was 24.1 µg/mL (≈ 49.3 µM).
In the case of `COc1cc2c(cc1OC)C(c1ccc(-c3ccc(Cl)c(Cl)c3)o1)=NCC2`, the IC50 was 6.98 µg/mL (≈ 17.4 µM).
On to `Cc1nc2c(-c3ccccc3)c[nH]n2c(=O)c1Cc1ccccc1`, for which the IC50 is > 50 µg/mL (inactive).
With `COc1cccc(CSc2nc3c(c(-c4ccccc4)c2C#N)CN(C)CC3)c1` the figure was 22.8 µg/mL (≈ 56.9 µM).
With `CN=c1c([N+](=O)[O-])nn(-c2ccccc2)n1O` the figure was > 50 µg/mL (inactive); with `CCc1cc2c(=O)c(-c3ccc(OC)cc3)coc2cc1OCC(=O)OC`, 1.19 µg/mL (≈ 3.23 µM).
The value for `COC(=O)COc1ccc(NC(=O)COc2ccc(C)cc2C)cc1` was less than 0.1 µg/mL; that for `CN1CCN(c2ccc(NC(=O)c3ccc(-c4cccc([N+](=O)[O-])c4)o3)cc2)CC1` was 8.66 µg/mL (≈ 21.3 µM); that for `CCCCc1cc(=O)oc2cc(OC(C)C(=O)OCC)c(Cl)cc12` (stereo unspecified) was less than 0.1 µg/mL.
As to `Cc1ccc(-n2c(=O)oc3ccc(Cl)cc3c2=O)cc1`, the IC50 is > 50 µg/mL (inactive).
With `CC(C)C(=O)N1CCN(c2ccc(NC(=O)c3ccc([N+](=O)[O-])o3)cc2)CC1` the figure was 0.21 µg/mL (≈ 0.543 µM); with `Cc1ccc(S(=O)(=O)c2nc(S(=O)(=O)Cc3ccc([N+](=O)[O-])cc3)sc2Cl)cc1`, 1.04 µg/mL (≈ 2.2 µM); with `Cc1ccc(SCCNC(=S)Nc2ccc(Nc3ccccc3)cc2)cc1`, 4.03 µg/mL (≈ 10.2 µM).
For the compound `c1ccc(COc2ccc(OCCn3ccnc3)cc2)cc1`, the IC50 was 10.4 µg/mL (≈ 35.2 µM).
The value for `c1ccc(CNc2nc(N3CCN(Cc4ccccc4)CC3)nc3ccccc23)cc1` was 1.5 µg/mL (≈ 3.66 µM).
With `O=C(Nc1nc(-c2ccccc2)c(-c2ccccc2)o1)c1ccc(F)cc1` the figure was less than 0.1 µg/mL; with `Cc1cccc(NC(=O)c2cc(-c3cccs3)nc3ccccc23)n1`, 1.82 µg/mL (≈ 5.27 µM); with `CCCCn1c(NC(=S)Nc2ccccc2)nc2ccccc21`, 4.83 µg/mL (≈ 14.9 µM).
The value for `O=C(NC(=S)Nc1cccc(C(F)(F)F)c1)c1cccs1` was 2.39 µg/mL (≈ 7.23 µM); that for `COc1ccc(-c2cc(C(=O)N/N=C/C=C/c3ccccc3OC)[nH]n2)cc1` was less than 0.1 µg/mL; that for `COC(=O)COc1ccc(NC(=O)COc2ccc(C)c(C)c2)cc1` was 3.35 µg/mL (≈ 9.76 µM).
`CCn1c(/C=C/c2ccc(F)cc2)nc2ccccc21`: the half-inhibitory concentration (IC50) is 8.17 µg/mL (≈ 30.7 µM).
For the compound `CC1=NN(c2nc(-c3ccc(Cl)cc3)cs2)C(=O)C1C` (stereo unspecified), the IC50 is 2.07 µg/mL (≈ 6.77 µM).
With `Cc1cccc(NC(=O)c2cc3cc([N+](=O)[O-])ccc3oc2=O)c1` the figure was > 50 µg/mL (inactive); with `O=C(OCc1ccccn1)c1ccc(COc2cccc3ccccc23)cc1`, 6.98 µg/mL (≈ 18.9 µM).
For the compound `Cc1ccc(-n2cnc3cc(NCc4cccs4)ccc32)cc1`, the IC50 is 2.87 µg/mL (≈ 8.98 µM).
The value for `COc1ccc(NC(=O)CC23CC4CC(CC(C4)C2)C3)cc1Cl` was 3.05 µg/mL (≈ 9.14 µM); that for `O=C(CSc1nnc(-c2ccccc2)o1)N1CCc2ccccc2C1` was 9.27 µg/mL (≈ 26.4 µM); that for `Cc1cccc(N2CCN(C3=NC(=O)C(=C4CCCCC4)S3)CC2)c1` was 0.78 µg/mL (≈ 2.19 µM).
With `CN1CCN(c2ccc(NC(=O)c3ccc(-c4ccc(Br)cc4)o3)cc2)CC1` the figure was 2.94 µg/mL (≈ 6.68 µM); with `OC(CN1CCN(C(c2ccccc2)c2ccccc2)CC1)Cn1c2ccccc2c2ccccc21` (stereo unspecified), 10.7 µg/mL (≈ 22.5 µM).
As for `O=C(Nc1cccc(C(F)(F)F)c1)C1CCN(C(=O)c2ccc(-c3ccccc3)cc2)CC1`, the IC50 is 5.84 µg/mL (≈ 12.9 µM).
With `CCc1ccccc1NC(=O)c1cc2cc([N+](=O)[O-])cc(OC)c2oc1=O` the figure was > 50 µg/mL (inactive); with `Cc1ccc(O)c(C2=NNC(c3ccc(Cl)cc3)C2)c1` (stereo unspecified), 4.76 µg/mL (≈ 16.6 µM); with `Cc1ccc(-c2[nH]c(-c3ccc([N+](=O)[O-])cc3)nc2-c2ccccc2)cc1`, 7.13 µg/mL (≈ 20.1 µM).
Turning to `Cc1ccc(-c2csc3ncn(C(C)C(=O)OC4CCCCC4)c(=O)c23)cc1C` (stereo unspecified), the 50% inhibitory concentration (IC50) was 1.52 µg/mL (≈ 3.7 µM).
The value for `Cc1sc2ncn(C(C)C(=O)OC3CCCCC3)c(=O)c2c1C` (stereo unspecified) was 1.11 µg/mL (≈ 3.32 µM); that for `O=C(Nc1ccc(F)c(Cl)c1)C1CC2CCCC(C1)C2=O` (stereo unspecified) was 39.7 µg/mL (≈ 128 µM); that for `CCC(Oc1ccc2c(-c3ccccc3)cc(=O)oc2c1)C(=O)OCc1ccccc1` (stereo unspecified) was 3.8 µg/mL (≈ 9.17 µM).
The value for `COc1cc(NC(=O)C(Cl)Cl)c(OC)cc1Cl` was 2.68 µg/mL (≈ 8.98 µM); that for `CC(=O)Oc1c(C(=O)c2ccccc2)sc2ccccc12` was 0.71 µg/mL (≈ 2.4 µM); that for `CC(=O)Oc1ccccc1C(=O)Nc1ccc(Br)cc1Cl` was 4.23 µg/mL (≈ 11.5 µM).
With `Cc1ccc(-c2nc(NC(=O)C34CC5CC(CC(C5)C3)C4)sc2C)cc1` the figure was > 50 µg/mL (inactive); with `Cc1ccc(SCC(=O)Nc2cccc(F)c2)cc1`, 5.34 µg/mL (≈ 19.4 µM).
As for `COc1cc(CNCCCO)cc(Cl)c1OCc1ccc(Cl)cc1Cl`, the IC50 was 6.25 µg/mL (≈ 15.4 µM).

The term IC50 denotes the concentration needed to halve the response being measured.
